For assay [1], the system named is Drechslera graminea (syn. Helminthosporium gramineum). Description: Drechslera graminea test (barley) / seed treatment. It counts as in vivo. The following applies: dry seed dressing of infected barley seed; evaluation for stripe disease symptoms ca. 3 weeks after sowing; compared with the prior-art comparison substances. The text has this: Drechslera graminea-Test (Gerste) / Saatgutbehandlung (syn. Helminthosporium gramineum)
Die Anwendung der Wirkstoffe erfolgt als Trockenbeizmittel. Sie werden zubereitet durch Abstrecken des jeweiligen Wirkstoffes mit Gesteinsmehl zu einer feinpulvrigen Mischung, die eine gleichmäßige Verteilung auf der Saatgutoberfläche gewährleistet.
Zur Beizung schüttelt man das infizierte Saatgut 3 Minuten lang mit dem Beizmittel in einer verschlossenen Glasflasche.
Das Saatgut setzt man in gesiebter, feuchter Standarderde eingebettet, in verschlossenen Petrischalen im Kühlschrank 10 Tage lang einer Temperatur von 4°C aus. Dabei wird die Keimung der Gerste und gegebenenfalls auch der Pilzsporen eingeleitet. Anschließend sät man die vorgekeimte Gerste mit 2 x 50 Korn 3 cm tief in eine Standarderde und kultiviert sie im Gewächshaus bei einer Temperatur von ca. 18°C in Saatkästen, die täglich 15 Stunden dem Licht ausgesetzt werden.
Ca. 3 Wochen nach der Aussaat erfolgt die Auswertung der Pflanzen auf Symptome der Streifenkrankheit.

For the next assay, the system named is Podosphaera leucotricha. Put plainly: Podosphaera test (apple) / protective. The note with it: protective spray on young apple plants; evaluation 9 days after inoculation; compared with the prior-art comparison substances. It counts as in vivo. The text has this:
Podosphaera-Test (Apfel) / protektiv
• Lösungsmittel: 4,7 Gewichtsteile Aceton • Emulgator: 0,3 Gewichtsteile Alkylarylpolyglykolether
Zur Herstellung einer zweckmäßigen Wirkstoffzubereitung vermischt man 1 Gewichtsteil Wirkstoff mit den angegebenen Mengen Lösungsmittel und Emulgator und verdünnt das Konzentrat mit Wasser auf die gewünschte Konzentration.
Zur Prüfung auf protektive Wirksamkeit bespritzt man jungePflanzen mit der Wirkstoffzubereitung bis zur Tropfnässe. Nach Antrocknen des Spritzbelages werden die Pflanzen durch Bestäuben mit Konidien des Apfelmehltauerregers (Podosphaera leucotricha) inokuliert.
Die Pflanzen werden dann im Gewächshaus bei 23°C und einer relativen Luftfeuchtigkeit von ca. 70 % aufgestellt.
9 Tage nach der Inokulation erfolgt die Auswertung.

Structures are written as SMILES.

`Cl.FC(F)(F)c1cc(Cl)ccc1C1(Cn2ccnc2)OCCO1` [Beispiel 1, 2-(4-Chlor-2-trifluormethyl)-phenyl-2-(imidazol-1-yl)-methyl-1,3-dioxolan-hydrochlorid]: the Wirksamkeit result in assay [1] was “deutliche überlegenheit in der Wirksamkeit gegenüber dem Stand der Technik”; in the assay on Podosphaera leucotricha, “deutliche Überlegenheit in der Wirksamkeit gegenüber dem Stand der Technik”.
